Results published in patent US10662225B2, “Backbone cyclized inhibitory peptides of myeloid differentiation factor 88 (MyD88)” (Yissum Research Development Company of the Hebrew …, priority 2016, dated 2020).
Numbered stars: 1 amine (or outer) side, 2 acyl side, 3 side chain; on linkers, the order of the positions; unused ones are H or OH. Bridge positions count the residues as written; N and C are the ends. Square brackets hold non-standard residues; d marks the D form. Ends that are not written are not given here. Peptide text beside a SMILES is read from it. * marks the point of attachment. Myristoyl = CCCCCCCCCCCCCC(=O)*; CO = O=C([*:1])[*:2]; Nlys = NCCCCNCC(=O)O

Key:
MyD88 = MyD88 (Homo sapiens, UniProt Q99836); assay: Comparison of linear 7-mer peptide with and without N-terminal myristoyl group (assay not specified); conditions: versus linear MyD88 inhibitor 7-mer peptide
From the text: The importance of additional moieties to enhance cell penetration is further evaluated. […] Therefore, backbone cyclic peptides with addition of a myristoyl group or other moieties designed to enhance cell penetration are also synthesized and tested for binding, inhibition, stability and permeability.

MyD88 dimerization = biological target: T1, MyD88 dimerization (Homo sapiens, UniProt Q99836); assay: Co-immunoprecipitation of Flag-MyD88 with HA-MyD88 in HEK293 cells; format: cell-based; conditions: HEK293, IL-1 stimulation; 4×4MyDI at 20, 2, 0.2 μM; Myr-4×4MyDI at 0.2 or 2000 nM
T1 construct: constructs encoding HA-tagged full length MyD88 and Flag-tagged full length MyD88; expressed in transfected cells; host or cells: HEK293
Description: FIG. 10. 4×4MyDI blocks MyD88 dimerization. HEK293 cells were transfected with two plasmids, one encoding HA-MyD88 and the other encoding FLAG-MyD88 and after 48 hours the cells were either untreated (cont) or treated with 20 μM of the linear MyDI peptide, the scrambled version of the linear MyDI peptide (SEQ ID NO: 5,), or the 4×4MyDI at 20, 2, or 0.2 μM. After 3 h of treatment, cells were stimulated with recombinant human IL-1 (20 ng/ml) for 30 min and then lysed. Whole cell lysates (WCL) were immunoprecipitated with anti-HA beads (Thermo-Scientific) for 30 min and proteins were eluted with glycine Ph 2.0, neutralized, and loaded on an acrylamide gel for analysis. Proteins were transferred to nitrocellulose and the amount of Flag-MyD88 that co-precipitated with HA-MyD88 was detected by immunoblotting (IB) with anti-Flag antibody.
FIGS. 14A and 14B. […] Proteins were transferred to nitrocellulose and the amount of FLAG-MyD88 that co-precipitated with HA-MyD88 was detected by immunoblotting (IB) with anti-FLAG antibody. […] Percent inhibition of co-immunoprecipitation was calculated by comparing densitometry of bands in the treated lanes to control. […]
TLR and IL-1 receptor signaling proceeds through a multimeric protein signaling complex (the “Myddosome”) that is initiated by MyD88 homodimerization. […] Immunoprecipitated protein was eluted and analyzed by immunoblot using an antibody to Flag. […]

NFkB activation = assay: NFkB-luciferase reporter in RAW 264.7 macrophages stimulated with LPS; format: cell-based, mouse; conditions: RAW 264.7 NFkB-luc, 4 hours
Description: FIG. 13. 4×4MyDI and Myr4×4MyDI block NFkB induction in response to LPS stimulation of RAW 264.7 NFkB-luc cells. RAW 264.7 murine macrophages were transfected with an NFkB-luciferase reporter gene and stimulated with LPS in the absence or presence of increasing concentrations of the inhibitors. After 4 hours cells were lysed and luminescence was recorded using a Tecan plate reader. BG denotes background.
In this assay the mouse macrophage RAW264.7 cell line is transfected with an NFkB-luciferase reporter construct and then cells are stimulated by exposure to bacterial LPS and light emission is measured after addition of luciferase substrate.

[1] = test system: OCI-LY3 (MyD88 L265P) cells; assay: Proliferation of lymphoma cells (Promega CellTiter viability assay); format: cell-based, human; conditions: 48 h; compared with OCI-LY19 (MyD88 WT)
Description: FIGS. 18A and 18B. 4×4MyDI and Myr-4×4MyDI block proliferation of Ly3 lymphoma cells that carry the L265P oncogenic mutation in MyD88. Cell lines OCI-LY3 (MyD88^L265P) and OCI-LY19 (MyD88^WT) were grown in RPMI supplemented with 10% FCS. Cells were counted and plated at identical concentrations in triplicate wells of 96 well plates and decreasing concentrations of 4×4MyDI […], or Myr-4×4MyDI (19B), was added to the wells. After 48 h cell viability was tested using the Promega CellTiter viability assay according to the manufacturer's instructions. Percent inhibition was calculated as [(1-OD of well with inhibitor/OD of well without inhibitor)*1001. Negative values in A represent enhanced growth in the presence of the inhibitor.
Genomic DNA was prepared from the human lymphoma cell lines OCI-LY3 (MyD88^L265P) and OCI-LY19 (MyD88^WT) to confirm the presence of the activating L265P mutation in the OCI-Ly3 cells (and the WT sequence in the OCI-Ly19 cells). The MyD88 region was amplified using the forward and reverse primers GGGATATGCTGAACTAAGTTGCCAC (SEQ ID NO: 7) and GACGTGTCTGTGAAGTTGGCATCTC (SEQ ID NO: 8), respectively, as described in Xu, L. et al Blood (2013) 121(11): 2051-2058. The PCR product was sequenced to confirm the mutation.
The cell lines were incubated alone or with increasing concentrations of the 4×4MyDI. […]

T1 sequence (Q99836 whole entry): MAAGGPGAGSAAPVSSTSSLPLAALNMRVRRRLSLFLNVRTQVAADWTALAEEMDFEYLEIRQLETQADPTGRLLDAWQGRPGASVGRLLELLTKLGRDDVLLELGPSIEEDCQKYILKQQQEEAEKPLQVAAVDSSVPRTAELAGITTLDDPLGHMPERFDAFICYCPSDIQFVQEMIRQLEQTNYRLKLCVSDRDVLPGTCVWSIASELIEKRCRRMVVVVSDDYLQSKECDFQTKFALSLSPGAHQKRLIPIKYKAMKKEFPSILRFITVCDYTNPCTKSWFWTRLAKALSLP
Sequence of MyD88 (Q99836 whole entry, species assumed): as the sequence (Q99836 whole entry) above

Molecule | peptide stability on addition of myristoyl group (MyD88) | MyD88 dimerization (Flag-MyD88 co-precipitated with HA-MyD88) (MyD88 dimerization) | block of NFkB activation (NFkB activation) | proliferation of OCI-Ly3 cells [1]
CCCCCCCCCCCCCC(=O)N[C@@H](CCCNC(=N)N)C(=O)N[C@@H](CC(=O)O)C(=O)N[C@H](C(=O)N[C@@H](CC(C)C)C(=O)N1CCC[C@H]1C(=O)NCC(=O)N[C@H](C(=O)O)[C@@H](C)O)C(C)C (Myristoyl-RDVLPGT-OH; N-terminus and C-terminus assumed) | without affecting peptide stability | – | – | –
Myr-4×4MyDI: 4×4MyDI backbone cyclic peptide with a myristoyl group (formula V) (Myristoyl-[Nlys]RDVL[Nlys]GT; bridge 1-6 via CO) | – | at least as active as 4×4MyDI | greater activity than the 4×4MyDI | specifically blocked proliferation
